Assay results from patent publication USRE29244E, “Coccidiostats” (priority 1976, dated 1977).
Where two headings read alike, the source gives them in different places.

Experiments:
Toxic dosage in mice = format: in vivo; conditions: for MTD: mouse, in vivo, read-out: Tolerated dose
From the text: The toxic dosage of the antibiotic as tested in mice and designated as the lethal dose is as follows: […]

[1] = system: mixtures of E. tenella, E. necatrix, E. acervulina, E. brunetti, E. maxima, E. mivati; test: Multiple Eimeria infections in chickens; format: in vivo, Eimeria (mixture; in chickens); conditions: for Average degree of infection: <2.5 significant; for Weight gain: uninfected control 100
Experimental: (§1) Test method.--This test utilizes ten chickens per drug group. Ten chickens are employed as a weight control and ten chickens as an infected control. The drug is given 48 hours in advance of the infection. One gm. of the test drug is mixed in a mechanical mixer with a sufficient amount of chicken feed to result in the desired dosage. The infection consists of approximately 200,000 oocysts given orally by pipette. The tests lasts for eleven days and then the surviving birds are autopsied and examined for gross lesions in the ceca. The test birds are rated according to the number of survivors and the number of cecal lesions. The results are expressed as average degree of infection (A.D.I.). An average degree of infection of less than 2.5 is considered significant.
(B) Multiple Eimeria infections in chickens
Test method.--The test method is the same as for Eimeria tenella. The multiple Eimeria infections tested herein are mixtures of E. tenella, E. necatrix, E. acervulina, E. brunetti, E. maxima, E. mivati infections.

[2] = Continuous feeding of chicks for nine weeks; format: in vivo, chicken
From the text: At 0.025%, growth is reduced, feed conversion impaired and 25% mortality occurs.

Gram-negatives = test: Antimicrobial spectrum, plate assay; format: cell-based; conditions: Gram-negatives: Pseudomonas acruginosa, Aerobacillus polymyxa, Escherichia coli
From the text: The following table summarizes the antimicrobial spectrum of antibiotic X-537A:
Antimicrobial spectrum of antibiotic X-537A
Test organism: Plate units per mg.
*These were Pseudomonas acruginosa, Aerobacillus polymyxa and Escherichia
The antibiotic can be prepared by growing the Streptomyces organisms in an aerated submerged culture. This can be done in either a shaken flask or in 50-1,000 gallon stainless steel and iron fermentation tanks. The broths are adjusted to a pH which is about neutral, i.e., 6.5-7.5 prior to be sterilized and are then incubated at slightly elevated temperatures, e.g., about 27° to 30° C., after being inoculated with spore suspensions or vegetative growth. The reaction broth is then filtered and the active material is extracted with a suitable solvent, preferably methanol, n-butanol or butyl acetate. The antibiotic activity is followed by cup-plate agar diffusion assay in which the test organism Bacillus E is employed. In general, the concentration of antibiotic required to produce an inhibition zone of 20-22 mm. in diameter with any of the test organisms is considered to be 1 unit per ml. Whole broths are diluted for assay in 1% phosphate buffer, pH 6.0.

gram-positive bacteria = test: In vitro antibacterial activity; format: cell-based
coccidiosis = test: Control of coccidiosis by medicated feed (general statements); format: in vivo, poultry (turkeys, chickens)
From the text: Thus, the compositions of this invention not only control coccidiosis, but also, aid in improving the efficiency of conversion of feed to weight gains.
Thus, for example, a feed premix or complete feed contains sufficient active ingredient to provide from about 0.001% to about 0.0125% by weight of the daily feed consumption. Preferably, about 0.00312% to 0.00625% by weight is used. Generally, about 0.005% to about 0.006% of the active ingredient is sufficient for the purpose of controlling and combating coccidiosis.
Even though amounts over 0.00625% are efficacious for combating coccidiosis, this amount is the preferred upper range because of economics, i.e., the cost per unit of effectiveness is lowest within this range. Amounts lower than 0.001% and in some cases lower than 0.003% are not effective for combating coccidiosis. Preferred is a lower limit of 0.00312% because this insures efficaciousness. The most preferred amount, i.e., about 0.005% to about 0.006% by weight of the poultry daily feed consumption is particularly efficacious since it achieves maximum effect with minimum dose. The range of the weight amounts of active antibiotic in the dried unfiltered broth solids which are efficacious for combating coccidiosis is the same as for the crystalline material or its salts. For example, when administered in feed to chicks so as to contain a dosage of 0.003% of active ingredient, the crude dried unfiltered broth results in an average degree of infection of 1.4 while at the same dosage, the sodium salt of the crystalline antibiotic results in an average degree of infection of 1.7. At a dosage equivalent to a concentration of active ingredient of 0.006%, the dried material results in an average degree of infection of 0.0 while the sodium salt of the crystalline antibiotic results in an average degree of infection of 0.2.

mycobacteria = test: In vitro antibacterial activity; format: cell-based
Eimeria tenella = Eimeria tenella infection in laboratory chickens; format: in vivo; design: Average degree of infection: scale not given here; conditions: for Average degree of infection: <2.5 significant; for Weight gain: uninfected control 100
Experimental: (A) Eimeria tanella infection in laboratory chickens
as §1

gram-negative bacteria = test: In vitro antibacterial activity; format: cell-based

**Q.** What does the source list for CCC(C(=O)C(C)C(O)C(C)CCc1ccc(C)c(O)c1C(=O)O)C1OC(CC)(C2CCC(O)(CC)C(C)O2)CC1C (centres unmarked) [antibiotic X-537A]?
**A.** Lethal dose (Toxic dosage in mice; intraperitoneal): 62.5 mg/kg; MTD (Toxic dosage in mice; ip, intraperitoneal): 50 mg/kg; MTD (Toxic dosage in mice; oral): 62.5 mg/kg; MTD (Toxic dosage in mice; sc, subcutaneous): 62.5 mg/kg; Lethal dose (Toxic dosage in mice; oral): 125 mg/kg; Lethal dose (Toxic dosage in mice; subcutaneous): 125 mg/kg; Percent mortality ([1]; 0.00312% in feed): 0%; Average degree of infection ([1]; 0.00312% in feed): 0.9; Weight gain ([1]; 0.00312% in feed): 105%; Percent mortality ([1]; 0.00625% in feed): 0%; Average degree of infection ([1]; 0.00625% in feed): 0.0; Weight gain ([1]; 0.00625% in feed): 108%; Efficiency of conversion of feed to weight gain ([1]; chickens): greater than expected; Effectiveness in treating multiple coccidiosis infections ([1]; in vivo): effective; Feed conversion ([2]; 0.025% in feed): impaired; Growth ([2]; 0.025% in feed): reduced; mortality at 1512 h ([2]; chicken, in vivo, po, 0.025% in feed): 25%; Adverse effects on performance (growth, feed efficiency and mortality) ([2]; up to 0.0125% by weight in feed, nine weeks): no adverse effects; Antimicrobial activity (Gram-negatives): 0 Plate units per mg.; Activity in vitro against gram-positive bacteria (gram-positive bacteria): active; Effectiveness against coccidiosis (coccidiosis; amounts greater than 0.0125% of feed): effective against coccidiosis, do not generally show improved results over 0.0125%; Effect on growth, feed efficiency and mortality (coccidiosis; amounts greater than 0.0125% of feed, in some cases): may adversely affect the growth, feed efficiency and mortality; Effectiveness against coccidiosis (coccidiosis; amounts lower than 0.001% and in some cases lower than 0.003% of feed): not effective; Toxicity / untoward side effects (coccidiosis; at dosages necessary to control coccidiosis): not toxic and shows no untoward side effects; Weight of treated fowl compared to controls (coccidiosis; oral, as component of feed): either maintain their weight or actually gain weight; Control of coccidiosis (coccidiosis; oral, as component of feed, turkeys and chickens): effectively controls the disease; Activity in vitro against mycobacteria (mycobacteria): active; Percent mortality (Eimeria tenella; Test I, 0.00312% in feed): 0%; Average degree of infection (Eimeria tenella; Test I, 0.00312% in feed): 2.2; Weight gain (Eimeria tenella; Test I, 0.00312% in feed): 85%; Percent mortality (Eimeria tenella; Test I, 0.00625% in feed): 0%; Average degree of infection (Eimeria tenella; Test I, 0.00625% in feed): 0.4; Weight gain (Eimeria tenella; Test I, 0.00625% in feed): 92%; Percent mortality (Eimeria tenella; Test II, 0.001% in feed): 15%; Average degree of infection (Eimeria tenella; Test II, 0.001% in feed): 2.8; Weight gain (Eimeria tenella; Test II, 0.001% in feed): 80%; Percent mortality (Eimeria tenella; Test II, 0.002% in feed): 15%; Average degree of infection (Eimeria tenella; Test II, 0.002% in feed): 2.6; Weight gain (Eimeria tenella; Test II, 0.002% in feed): 83%; Percent mortality (Eimeria tenella; Test II, 0.003% in feed): 5%; Average degree of infection (Eimeria tenella; Test II, 0.003% in feed): 2.2; Weight gain (Eimeria tenella; Test II, 0.003% in feed): 85%; Percent mortality (Eimeria tenella; Test II, 0.004% in feed): 15%; Average degree of infection (Eimeria tenella; Test II, 0.004% in feed): 1.7; Weight gain (Eimeria tenella; Test II, 0.004% in feed): 87%; Percent mortality (Eimeria tenella; Test II, 0.005% in feed): 5%; Average degree of infection (Eimeria tenella; Test II, 0.005% in feed): 0.8; Weight gain (Eimeria tenella; Test II, 0.005% in feed): 94%; Percent mortality (Eimeria tenella; Test II, 0.006% in feed): 0%; Average degree of infection (Eimeria tenella; Test II, 0.006% in feed): 0.1; Weight gain (Eimeria tenella; Test II, 0.006% in feed): 95%; Average degree of infection (Eimeria tenella; Test III, 0.003% in feed): 1.7; Weight gain (Eimeria tenella; Test III, 0.003% in feed): 79%; Average degree of infection (Eimeria tenella; Test III, 0.004% in feed): 1.1; Weight gain (Eimeria tenella; Test III, 0.004% in feed): 81%; Average degree of infection (Eimeria tenella; Test III, 0.005% in feed): 0.5; Weight gain (Eimeria tenella; Test III, 0.005% in feed): 98%; Average degree of infection (Eimeria tenella; Test III, 0.006% in feed): 0.2; Weight gain (Eimeria tenella; Test III, 0.006% in feed): 97%; Effectiveness in treatment of coccidiosis (Eimeria tenella; at the preferred dosages illustrated): effective; Effect on conversion of feed to weight gain (Eimeria tenella; used as a coccidiostat): does not substantially adversely affect; Activity in vitro against gram-negative bacteria (gram-negative bacteria): inactive
